These results are taken from patent US10383880B2 (Reset Therapeutics, Inc., priority 2012, dated 2019).

A word on the EC50: it is the concentration that produces a half-maximal response. A low value points to higher potency in that assay.

Structures are written as SMILES.

The test system of this assay is Per2-dLuc U2OS reporter cells. As to the kind of experiment: Per2 assay for evaluating the potency of test compounds (high-throughput circadian assay). Format: cell-based. The conditions noted are these: Homo sapiens, U2OS, stable U2OS reporter cells harboring Per2-dLuc; luminescence monitored over 4-5 days at 35° C. In short, it runs like this: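 Compounds (0.5% DMSO final) were added right after serum-shock synchronization of Per2-dLuc U2OS reporter cells in minimal medium containing 1.0 mM beetle luciferin. Reporter luminescence was followed at 35 °C for 4–5 days to extract rhythm period, amplitude and phase, and EC50 values were obtained from these.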

In turn, `Cc1ccccc1N(CC(O)Cn1c2ccccc2c2ccccc21)S(C)(=O)=O` (stereo not drawn) [Compound 62, N-(3-(9H-Carbazol-9-yl)-2-hydroxypropyl)-N-o-tolylmethanesulfonamide] yielded an EC50 of 1330 nM.
As for `O=S1(=O)CCCCN1CC(O)Cn1c2ccc(F)cc2c2ccc(F)cc21` (stereo not drawn) [Compound 100, N-(3-(2,6-Diflouoro-9H-carbazol-9-yl)-2-hydroxypropyl)-1,2-thiazinane 1,1-dioxide], a half-maximal response (EC50) required 32 nM.
Take `CS(=O)(=O)N(CC(O)Cn1c2ccccc2c2ccccc21)c1ccc(Cl)cc1` (stereo not drawn) [Compound 22, N-(3-(9H-Carbazol-9-yl)-2-hydroxypropyl)-N-(4-chlorophenyl)methanesulfonamide]: the midpoint of the response, the EC50, lay at 510 nM.
The same measure for `O=S(=O)(CC1CCOC1)N(Cc1ccco1)CC(O)Cn1c2ccccc2c2ccccc21` (stereo not drawn) [Compound 17, N-(3-(9H-Carbazol-9-yl)-2-hydroxypropyl)-N-(furan-2-ylmethyl)-1-(tetrahydrofuran-3-yl)methanesulfonamide]: 2490 nM; for `CS(=O)(=O)N(Cc1ccccc1)CC(O)Cn1c2ccccc2c2ccccc21` (stereo not drawn) [Compound 44, N-(3-(9H-Carbazol-9-yl)-2-hydroxypropyl)-N-benzylmethanesulfonamide]: 8270 nM; for `O=S1(=O)CCCCN1CC(O)Cn1c2ccccc2c2ccccc21` (stereo not drawn) [Compound 33, N-(3-(9H-Carbazol-9-yl)-2-hydroxypropyl)-1,2-thiazinane 1,1-dioxide]: 35 nM.
`O=S1(=O)CCCCN1CC(O)Cn1c2ccc(F)cc2c2cc(F)ccc21` (stereo not drawn) [Compound 86, N-(3-(3,6-Difluoro-9H-carbazol-9-yl)-2-hydroxypropyl)-1,2-thiazinane 1,1-dioxide] yielded an EC50 of 46 nM.
As for `CC(C)N(CC(O)Cn1c2ccccc2c2ccccc21)S(C)(=O)=O` (stereo not drawn) [Compound 46, N-(3-(9H-Carbazol-9-yl)-2-hydroxypropyl)-N-isopropylmethanesulfonamide], the figure is 100 nM.
Consider `CS(=O)(=O)N(CC(O)Cn1c2ccccc2c2ccccc21)c1ccc2[nH]ccc2c1` (stereo not drawn) [Compound 76, N-(3-(9H-Carbazol-9-yl)-2-hydroxypropyl)-N-(1H-indol-5-yl)methanesulfonamide], for which it took 2180 nM to reach a half-maximal effect (EC50).
Turning to `CS(=O)(=O)N(Cc1ccco1)CC(O)Cn1c2ccccc2c2c(F)cccc21` (stereo not drawn) [Compound 239, N-(3-(4-Fluoro-9H-carbazol-9-yl)-2-hydroxy-propyl)-N-(furan-2-yl-methyl)methane-sulfonamide], a half-maximal effect (EC50) was put at 1580 nM.
The same measure for `O=S1(=O)CCCN1CC(O)Cn1c2cc(F)ccc2c2c(F)cccc21` (stereo not drawn) [Compound 97, N-(3-(2,5-Difluoro-9H-carbazol-9-yl)-2-hydroxypropyl)-isothiazolidine-1,1-dioxide]: 319 nM.
In turn, `CC(CN(CC(O)Cn1c2ccccc2c2ccccc21)S(C)(=O)=O)c1ccccc1` (stereo not drawn) [Compound 70, N-(3-(9H-Carbazol-9-yl)-2-hydroxypropyl)-N-(2-phenylpropyl)methanesulfonamide] showed an EC50 of 8970 nM.
As for `CS(=O)(=O)N(CC(O)Cn1c2ccc(F)cc2c2cc(F)ccc21)c1ccc(C2CCC2)cc1` (stereo not drawn) [Compound 211, N-(4-Cyclobutylphenyl)-N-(3-(3,6-difluoro-9H-carbazol-9-yl)-2-hydroxypropyl)methanesulfonamide], the figure is 9240 nM; as for `CS(=O)(=O)N(CCc1ccccc1)CC(O)Cn1c2ccccc2c2ccccc21` (stereo not drawn) [Compound 54, N-(3-(9H-Carbazol-9-yl)-2-hydroxypropyl)-N-phenethylmethanesulfonamide], 824 nM.
Consider `CC(C)N(CC(C)(O)Cn1c2ccc(F)cc2c2cc(F)ccc21)S(C)(=O)=O` (stereo not drawn) [Compound 150, N-(3-(3,6-Difluoro-9H-carbazol-9-yl)-2-hydroxy-2-methylpropyl)-N-isopropylmethanesulfonamide], for which the EC50 was determined as 5050 nM.
`CC1(N(CC(O)Cn2c3ccccc3c3ccccc32)S(C)(=O)=O)COC1` (stereo not drawn) [Compound 144, N-(3-(9H-Carbazol-9-yl)-2-hydroxypropyl)-N-(3-methyloxetan-3-yl)methanesulfonamide] yielded a concentration giving a half-maximal response (EC50) of 2160 nM.
For the molecule `CS(=O)(=O)N(CC(O)Cn1c2ccccc2c2ccccc21)C1CCC1` (stereo not drawn) [Compound 57, N-(3-(9H-Carbazol-9-yl)-2-hydroxypropyl)-N-cyclobutylmethanesulfonamide], the response was half-maximal at 35 nM (EC50).
The molecule `O=S(=O)(c1cn[nH]c1)N(Cc1ccco1)CC(O)Cn1c2ccccc2c2ccccc21` (stereo not drawn) [Compound 5, N-(3-(9H-Carbazol-9-yl)-2-hydroxypropyl)-N-(furan-2-ylmethyl)-1H-pyrazole-4-sulfonamide] showed an EC50 of 8190 nM.
Consider `COC1CCCC(N(CC(O)Cn2c3ccccc3c3ccccc32)S(C)(=O)=O)C1` (stereo not drawn) [Compound 139, N-(3-(9H-Carbazol-9-yl)-2-hydroxypropyl)-N-(3-methoxycyclohexyl)methanesulfonamide], for which the EC50 was 263 nM.
`CN(CC(O)Cn1c2ccc(F)cc2c2cc(F)ccc21)S(C)(=O)=O` (stereo not drawn) [Compound 89, N-(3-(3,6-Difluoro-9H-carbazol-9-yl)-2-hydroxypropyl)-N-methylmethanesulfonamide]: the EC50 was 360 nM.
`CC(C)Oc1ccc(N(CC(O)Cn2c3ccc(F)cc3c3cc(F)ccc32)S(C)(=O)=O)cc1` (stereo not drawn) [Compound 210, N-(3-(3,6-Difluoro-9H-carbazol-9-yl)-2-hydroxypropyl)-N-(4-isopropoxyphenyl)methanesulfonamide] came in with an EC50 of 7210 nM.
As for `CCN(CC(O)Cn1c2ccccc2c2ccccc21)S(C)(=O)=O` (stereo not drawn) [Compound 45, N-(3-(9H-Carbazol-9-yl)-2-hydroxypropyl)-N-ethylmethanesulfonamide], the EC50 was 398 nM.
For the molecule `CC1CN(CC(O)Cn2c3ccc(F)cc3c3cc(F)ccc32)S(=O)(=O)C1` (stereo not drawn) [Compound 194, 2-(3-(3,6-Difluoro-9H-carbazol-9-yl)-2-hydroxypropyl)-4-methylisothiazolidine-1,1-dioxide], the EC50 was found to be 78 nM.
As to `CS(=O)(=O)N(CC(O)Cn1c2ccccc2c2ccccc21)c1cccnn1` (stereo not drawn) [Compound 79, N-(3-(9H-Carbazol-9-yl)-2-hydroxypropyl)-N-(pyridazin-3-yl)methanesulfonamide], the EC50 is 2800 nM.
The same measure for `CC(O)(CN(c1ccccc1)S(C)(=O)=O)Cn1c2ccc(F)cc2c2cc(F)ccc21` (stereo not drawn) [Compound 215, N-(3-(3,6-Difluoro-9H-carbazol-9-yl)-2-hydroxy-2-methylpropyl)-N-phenylmethanesulfonamide]: 7880 nM.
For `CN1CCN(CC(C)(O)Cn2c3ccc(F)cc3c3cc(F)ccc32)S1(=O)=O` (stereo not drawn) [Compound 174], the midpoint of the response, the EC50, lay at 80 nM.
As to `CS(=O)(=O)N(CC(O)Cn1c2cc(F)ccc2c2ccc(F)cc21)C1CCC1` (stereo not drawn) [Compound 160, N-Cyclobutyl-N-(3-(2,7-difluoro-9H-carbazol-9-yl)-2-hydroxypropyl)methanesulfonamide], a half-maximal response (EC50) required 605 nM.
Turning to `CC1(N(CC(O)Cn2c3ccc(F)cc3c3cc(F)ccc32)S(C)(=O)=O)CCCC1` (stereo not drawn) [Compound 196, N-(3-(3,6-Difluoro-9H-carbazol-9-yl)-2-hydroxypropyl)-N-(1-methylcyclopentyl)methanesulfonamide], the midpoint of the response, the EC50, lay at 149 nM.
As for `CS(=O)(=O)NCC(O)Cn1c2ccc(F)cc2c2ccc(F)cc21` (stereo not drawn) [Compound 168, N-(3-(2,6-Difluoro-9H-carbazol-9-yl)-2-hydroxypropyl)methanesulfonamide], the figure is 391 nM; as for `O=S(=O)(CC1CC1)N(Cc1ccco1)CC(O)Cn1c2ccccc2c2ccccc21` (stereo not drawn) [Compound 15, N-(3-(9H-Carbazol-9-yl)-2-hydroxypropyl)-1-cyclopropyl-N-(furan-2-ylmethyl)methanesulfonamide], 592 nM; as for `O=S1(=O)CCCN1CC(O)Cn1c2ccc(F)cc2c2ccc(F)cc21` (stereo not drawn) [Compound 101, N-(3-(2,6-Difluoro-9H-carbazol-9-yl)-2-hydroxypropyl)-isothiazolidine-1,1-dioxide], 50 nM.
The same measure for `CCCN(CC(C)(O)Cn1c2ccc(F)cc2c2cc(F)ccc21)S(C)(=O)=O` (stereo not drawn) [Compound 151, N-(3-(3,6-Difluoro-9H-carbazol-9-yl)-2-hydroxy-2-methylpropyl)-N-propylmethanesulfonamide]: 2260 nM; for `CS(=O)(=O)N(Cc1cccc(F)c1)CC(O)Cn1c2ccccc2c2ccccc21` (stereo not drawn) [Compound 67, N-(3-(9H-Carbazol-9-yl)-2-hydroxypropyl)-N-(3-fluorobenzyl)methanesulfonamide]: 3140 nM.
Molecule `CC1CCCN(CC(O)Cn2c3ccccc3c3ccccc32)S1(=O)=O` (stereo not drawn) [Compound 111, N-(3-(9H-Carbazol-9-yl)-2-hydroxypropyl)-6-methyl-1,2-thiazinane-1,1-dioxide] registered an EC50 of 84 nM.
As for `CS(=O)(=O)N(CC(O)Cn1c2ccccc2c2ccccc21)C1(C(F)(F)F)CCC1` (stereo not drawn) [Compound 146, N-(3-(9H-Carbazol-9-yl)-2-hydroxypropyl)-N-(1-(trifluoromethyl)cyclobutyl)methanesulfonamide], the figure is 1160 nM.
As for `O=S(=O)(CC1CCCO1)N(Cc1ccco1)CC(O)Cn1c2ccccc2c2ccccc21` (stereo not drawn) [Compound 19, N-(3-(9H-Carbazol-9-yl)-2-hydroxypropyl)-N-(furan-2-ylmethyl)-1-(tetrahydrofuran-2-yl)methanesulfonamide], the figure is 2100 nM; as for `O=S1(=O)Cc2ccccc2CN1CC(O)Cn1c2ccccc2c2ccccc21` (stereo not drawn) [Compound 35, N-(3-(9H-Carbazol-9-yl)-2-hydroxypropyl)-3,4-dihydro-1H-benzo[d][1,2]thiazine 2,2-dioxide], 1500 nM.
The same measure for `O=S1(=O)NCCCN1CC(O)Cn1c2ccc(F)cc2c2cc(F)ccc21` (stereo not drawn) [Compound 171, 2-(3-(3,6-Difluoro-9H-carbazol-9-yl)-2-hydroxypropyl)-1,2,6-thiadiazinane-1,1-dioxide]: 25 nM.
Regarding `CS(=O)(=O)N(Cc1ccco1)CC(O)Cn1c2ccc(F)cc2c2cc(F)ccc21` (stereo not drawn) [Compound 88, N-(3-(3,6-Difluoro-9H-carbazol-9-yl)-2-hydroxypropyl)-N-(furan-2-ylmethyl)methanesulfonamide], the EC50 is 940 nM.
